Laboratory results taken from US11059795B2, “Androgen receptor modulators and methods for their use” (ESSA Pharma, Inc., priority 2018, dated 2021).

Tests used:
[1] = system: LN-CaP95 cells; experiment: Cell proliferation assay, LNCaP95 (BrdU incorporation); format: cell-based; details: LNCaP-95, read-out: Cellular Proliferation/Viability IC50 (μM) LNCaP95
Protocol: (§1) Cell proliferation/viability was measured in LNCaP and PC3 cells with Alamar blue, and proliferation was measured in LN-CaP95 cells with BrdU incorporation. In LNCaP cells, AR specific proliferation is calculated by measuring the difference between control cells treated with or without 0.1 nM R1881.

[2] = molecular target: T1, LBD of glucocorticoid receptor (GR) fused to DBD of GAL4 (Homo sapiens, UniProt P04150); experiment: LBD-expressing reporter assay (GeneBLAzer), GR LBD; format: cell-based; details: inhibition of maximal activity attained with agonist; read-out: Steroid Receptor LBD IC50 (μM) GR
T1 sequence (P04150 524-758 limits assumed): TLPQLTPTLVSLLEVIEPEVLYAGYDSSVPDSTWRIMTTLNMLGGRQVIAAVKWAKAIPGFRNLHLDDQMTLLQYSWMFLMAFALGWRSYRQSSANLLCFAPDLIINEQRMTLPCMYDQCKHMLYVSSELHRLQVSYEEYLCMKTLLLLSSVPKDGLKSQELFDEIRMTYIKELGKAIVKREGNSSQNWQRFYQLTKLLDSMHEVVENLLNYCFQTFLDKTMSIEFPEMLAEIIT
Description: (§2) This assay uses cells that stably express a chimera fusion protein comprising the LBD of a steroid hormone receptor fused to the DNA-binding domain (DBD) of GAL4 along with beta-lactamase reporter under transcriptional control of an upstream activator sequence (UAS). When agonist binds to the LBD of the GAL4 (DBD)-steroid hormone (LBD) chimera fusion protein, the protein binds to the UAS, resulting in expression of beta-lactamase. LBDs of androgen receptor (AR), progesterone receptor-beta (PRβ), glucocorticoid receptor (GR), estrogen receptor-α (ERα), and estrogen receptor-β (ERβ) were tested and IC50s calculated for inhibiting maximal activity attained with agonist.

[3] = system: PC3 cells; experiment: Cell proliferation/viability assay, PC3 (Alamar blue); format: cell-based; details: Homo sapiens; PC-3, Alamar blue; read-out: Cellular Proliferation/Viability IC50 (μM) PC-3
Protocol: as §1

[4] = system: LNCaP cells; experiment: Cell proliferation/viability assay, LNCaP (Alamar blue); format: cell-based; details: Homo sapiens, AR specific proliferation with 0.1 nM R1881, read-out: Cellular Proliferation/Viability IC50 (μM) LNCaP
Protocol: as §1

[5] = molecular target: LBD of estrogen receptor-β (ERβ) fused to DBD of GAL4 (Homo sapiens, UniProt Q92731); experiment: LBD-expressing reporter assay (GeneBLAzer), ERβ LBD; format: cell-based; details: inhibition of maximal activity attained with agonist; read-out: Steroid Receptor LBD IC50 (μM) ERβ
Description: as §2, with “To assess if the representative compounds (Compounds A13, A28, A38, A74, A93, and A109) compete with ligand (agonist) for the ligand-binding domain (LBD) of steroid hormone receptors (which would be off-target), the GeneBLAzer assay was employed (Thermo Fisher). This” for “This”

[6] = molecular target: T2, LBD of estrogen receptor-α (ERα) fused to DBD of GAL4 (Homo sapiens, UniProt P03372); experiment: LBD-expressing reporter assay (GeneBLAzer), ERα LBD; format: cell-based; details: inhibition of maximal activity attained with agonist; read-out: Steroid Receptor LBD IC50 (μM) ERα
T2 sequence (P03372 311-547 limits assumed): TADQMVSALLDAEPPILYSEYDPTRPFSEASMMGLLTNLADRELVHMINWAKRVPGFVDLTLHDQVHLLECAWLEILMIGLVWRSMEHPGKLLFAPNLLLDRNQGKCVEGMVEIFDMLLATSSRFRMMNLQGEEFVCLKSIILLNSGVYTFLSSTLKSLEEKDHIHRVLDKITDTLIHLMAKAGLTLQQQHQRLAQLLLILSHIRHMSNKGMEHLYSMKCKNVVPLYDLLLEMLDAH
Description: as §2

[7] = molecular target: T3, LBD of progesterone receptor-beta (PRβ) fused to DBD of GAL4 (Homo sapiens, UniProt P06401); experiment: LBD-expressing reporter assay (GeneBLAzer), PR LBD; format: cell-based; details: inhibition of maximal activity attained with agonist; read-out: Steroid Receptor LBD IC50 (μM) PR
T3 sequence (P06401 679-913 limits assumed): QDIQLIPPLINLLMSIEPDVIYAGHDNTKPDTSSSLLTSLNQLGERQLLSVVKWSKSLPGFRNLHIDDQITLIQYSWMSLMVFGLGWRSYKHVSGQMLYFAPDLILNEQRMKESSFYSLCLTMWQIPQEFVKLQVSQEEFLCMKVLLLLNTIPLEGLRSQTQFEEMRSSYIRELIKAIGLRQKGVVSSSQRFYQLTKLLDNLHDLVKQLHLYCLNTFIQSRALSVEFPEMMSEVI
Description: as §2

[8] = Microsomal stability assay, rat liver microsomes; format: in vitro ADME; details: pH 7.4, read-out: Liver microsome T½ (min) Rat
Protocol: (§3) Microsomal stability assay is a widely used in vitro model to characterize the metabolic conversion by phase I enzymes, such as cytochrome P450 (CYP) enzymes. Since metabolism is known to be highly variable in different species, microsomal stability assay is commonly run in multiple species. Metabolic stability of testing compound can be evaluated using human, rat, mouse, or other animal liver or intestine microsomes to predict intrinsic clearance.
(§4) The assay was carried out in 96-well microtiter plates at 37° C. Reaction mixtures (25 μL) contained a final concentration of 1 μM test compound, 0.5 mg/mL liver microsomes protein, and 1 mM NADPH and/or 1 mM UDPGA (with alamethicin) in 100 mM potassium phosphate, pH 7.4 buffer with 3 mM MgCl2. The incubation was done with N=1, but duplicate incubation at each time point can be prepared if necessary. At each of the time points (for example, 0, 15, 30, and 60 minutes), 150 μL of quench solution (100% acetonitrile with 0.1% formic acid) with internal standard was transferred to each well. Besides the zero minute controls, mixtures containing the same components except the NADPH can also be prepared as the negative control. Verapamil was included as a positive control to verify assay performance. Plates were sealed, vortexed, and centrifuged at 4° C. for 15 minutes at 4000 rpm. The supernatant is transferred to fresh plates for LC/MS/MS analysis.
(§5) Summarized conditions: [Compound]=[…], [LM]=0.5 mg/mL, [NADPH]=1 mM and/or [UDPGA]=1 mM, Buffer=100 mM Potassium Phosphate, pH 7.4 with 3 mM MgCl2, Time=0, 15, 30, and 60 min, and Temperature=37° C.
(§6) All samples were analyzed on LC/MS/MS using an AB Sciex API 4000 instrument, coupled to a Shimadzu LC-20AD LC Pump system. Analytical samples were separated using a Waters Atlantis T3 dC18 reverse phase HPLC column (20 mm×2.1 mm) at a flow rate of 0.5 mL/min. The mobile phase consisted of 0.1% formic acid in water (solvent A) and 0.1% formic acid in 100% acetonitrile (solvent B).
(§7) The extent of metabolism is calculated as the disappearance of the test compound, compared to the 0-min time incubation. Initial rates are calculated for the compound concentration and used to determine half-life (t½) values and subsequently, the intrinsic clearance (Clint). Clint=(0.693)(1/t½ (min))(g of liver/kg of body weight)(mL incubation/mg of microsomal protein)(45 mg of microsomal protein/g of liver weight)

[9] = Hepatocyte stability assay, human hepatocytes; format: in vitro ADME; details: cryopreserved hepatocytes, read-out: Hepatocytes T½ (min) Human
Description: The […] of in vitro intrinsic clearance (Clint) for drug candidates in the early discovery stage is common practice in the pharmaceutical industry. The Clint values of drug candidates can help to confirm whether metabolism is the main clearance pathway when it is compared with the total body clearance in vivo. Hepatocytes are among the routinely used in vitro systems for measuring clearance. Hepatocytes have been reported to retain most of the phase I and phase II metabolic activities, and therefore, it is a useful tool to estimate the intrinsic clearance for potential drug candidates.
Metabolic stability of testing compound were be evaluated using human and mouse hepatocytes and can also be use rat, mouse, or other animal hepatocytes to predict intrinsic clearance. Cryopreserved hepatocytes were removed from the liquid nitrogen tank and thawed in a 37° C. water bath. As soon as the cells pulled away from the vial wall, they were decanted into 48 ml of warm HT medium. Cells were centrifuged for four minutes at 420 rpm (50 g). After removing the supernatant, pellet was re-suspended in warm DMEM medium. Cell density was counted by a hemacytometer.
The assay was carried out in 96-well microtiter plates. Compounds were incubated for 0, 60, 120, and 180 minutes at 37° C. with hepatocytes. Reaction mixtures (50 μL) contained a final concentration of 1 μM test compound, 0.5 million cells/mL hepatocytes in the DMEM medium. At each of the time points (for example, 0, 1, 2, and 3 hours), 200 μL of quench solution (100% acetonitrile with 0.1% formic acid) with internal standard was transferred to each well. Midazolam was included as a positive control to verify assay performance. Plates were sealed and centrifuged at 4° C. for 15 minutes at 4000 rpm. The supernatant is transferred to fresh plates for LC/MS/MS analysis.
Summarized conditions (customizable): [Compound]=[…], Positive control: midazolam and/or naloxone, [Hepatocyte]=0.5 million cells/Ml, time=0, 60, 120, and 180 min, t=37° C.
as §6
The extent of metabolism was calculated as the disappearance of the test compound, compared to the 0-min control reaction incubations. Initial rates were calculated for the compound concentration and used to determine t½ values and subsequently, the intrinsic clearance, Clint. Clint=(0.693)(1/t½(min))(mL incubation/million cells)

[10] = Microsomal stability assay, monkey liver microsomes; format: in vitro ADME; details: pH 7.4, read-out: Liver microsome T½ (min) Monkey
Protocol: as §3, §4, §5, §6, §7

[11] = Microsomal stability assay, human liver microsomes; format: in vitro ADME; details: pH 7.4, read-out: Liver microsome T½ (min) Human
In short: (§8)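 Compound at 1 μM was incubated at 37° C with 0.5 mg/mL liver microsomes and 1 mM NADPH and/or 1 mM UDPGA (with alamethicin) in 100 mM potassium phosphate pH 7.4, 3 mM MgCl2. Samples were taken at 0, 15, 30 and 60 min and measured by LC/MS/MS. t½ came from compound loss relative to 0 min, and Clint was scaled with 45 mg microsomal protein/g liver.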

[12] = Microsomal stability assay, dog liver microsomes; format: in vitro ADME; details: pH 7.4, read-out: Liver microsome T½ (min) Dog
Protocol: as §3, §4, §5, §6, §7

[13] = Microsomal stability assay, mouse liver microsomes; format: in vitro ADME; details: pH 7.4; mouse liver microsomes; read-out: Liver microsome T½ (min) Mouse
In short: as §8

[14] = system: LNCaP tumors; experiment: LNCaP xenografts model in castrated male NCG mice; format: in vivo; details: Table 4; extrapolated Cmin in efficacy
Protocol: Tumor growth was measured in male NCG mice bearing LNCaP tumors. Castration was performed when tumors reached ˜100 mm^3 and dosing (60 mg/kg PO qd) started 1 week after castration. […] Individual tumor volume change from baseline measured at the end of the experiment.

[15] = In vivo pharmacokinetics in plasma after oral gavage (PO) in male CD-1 mice; details: 5 mg/kg PO, Table 4
Protocol: The purpose of this study is to determine the pharmacokinetics of the tested compounds in plasma, following oral gavage administration (PO) to male CD-1 mice.
Animal Husbandry: Animals were group housed during acclimation and the study. The animal room environment were controlled (target conditions: temperature 18 to 26° C., relative humidity 30 to 70%, 12 hours artificial light and 12 hours dark). Temperature and relative humidity were monitored daily. Animals were fasted at least 12 hours prior to the administration. All animals had access to Certified Rodent Diet ad libitum 4 hours post dosing.
Dose Formulation: prepared 85-100 uL of a stock solution of representative compounds of the disclosure in DMSO at 50 mM; 1.5% v/v of Tween 80 were added and mixed gently; 95.5% v/v saline was added gently to the organic phase. The solution was mixed slowly by reverse pipetting to get a clear solution.
Dose Administration: the dose formulations were administered via oral gavage per facility SOPs. The dose volume were determined by the animals' body weight collected on the morning of dosing day
Sample Collection: blood collection (about 0.05 mL per time point) was performed from saphenous vein of each animal into polypropylene tubes at each timepoints (0, 0.25, 0.5, 1, 2, 4, 8, 12, and 24 hr). All blood samples were transferred into pre-chilled tubes containing 2 μL of K2-EDTA (0.5M) and placed on wet ice until centrifugation. Each collected blood sample was in the wet-ice before centrifugation. Each collected blood was under centrifugation for 15 minutes at 4° C. and 3000 g for plasma collection. Plasma samples were stored in polypropylene tubes, quickly frozen over dry ice and kept at −70±10° C. until LC/MS/MS analysis.
Bioanalytical analysis: A LC-MS/MS method for the quantitative determination of tested compound in biological matrix were developed under non-GLP compliance. A calibration curve with at least 7 non-zero calibration standards were applied for the method including LLOQ.
Plasma concentration versus time data were analyzed by non-compartmental approaches using the Phoenix WinNonlin 6.3 software program. Cl, Vdss, C0, Cmax, Tmax, T^1/2, AUC(0-t), AUC(0-inf), MRT(0-t), MRT(0-inf), % F (oral availability) and graphs of plasma concentration versus time profile were reported.

Chain of LBD of estrogen receptor-β (ERβ) fused to DBD of GAL4 (Q92731 264-498 limits assumed): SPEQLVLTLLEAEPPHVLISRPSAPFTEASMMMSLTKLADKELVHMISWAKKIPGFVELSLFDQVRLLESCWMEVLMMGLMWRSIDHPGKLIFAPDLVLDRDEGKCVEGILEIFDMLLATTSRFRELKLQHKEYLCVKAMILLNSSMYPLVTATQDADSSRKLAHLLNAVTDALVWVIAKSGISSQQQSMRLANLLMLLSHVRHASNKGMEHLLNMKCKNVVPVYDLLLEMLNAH

Row | SMILES | IC50 [1] [µM] | IC50 [2] [µM] | IC50 [3] [µM] | IC50 [4] [µM] | IC50 [5] [µM] | IC50 [6] [µM] | IC50 [7] [µM] | half-life at 1 μM [8] [min] | half-life at 1 μM [9] [min] | half-life at 1 μM [10] [min] | half-life at 1 μM [11] [min] | half-life at 1 μM [12] [min] | half-life at 1 μM [13] [min] | Cmin at 5 mg/kg PO [14] [µM] | Cmin at 5 mg/kg PO [15] [µM]
1 | CC(C)(c1ccc(OC[C@H](O)CO)cc1)c1ccc(OC[C@H](O)CCl)cc1 [EPI-002, reference compound] | ~20 | > 10 | > 10 | 9 | > 10 | > 10 | > 10 |  |  |  |  |  |  |  | 
2 | CNC(=O)c1ccc(N2C(=S)N(c3ccc(C#N)c(C(F)(F)F)c3)C(=O)C2(C)C)cc1F [Enzalutamide, enzalutamide, reference compound] |  |  |  |  |  |  |  | > 120 | > 360 | > 120 | > 120 | > 120 | > 120 | 22.8 | 3.80
